In patent US6521594B1, “Method and composition for treating thrombosis” (La Jolla Cancer Research Foundation, priority 1990, dated 2003):
pIC50: −log10 of the molar value. Read-outs that look alike come from different tables or passages of the source. No end group written: not given here. *: point of attachment. Pmc = Cc1c(C)c(S(=O)(=O)*)c(C)c2c1OC(C)(C)CC2

Tests used:
αvβ5 [1] = assay: αvβ5 ELISA IC50 (μM)
Description: Table printed on a drawing sheet, FIG. 22
Title: Modifications of Ac-CNPRGD(Y-OMe)RC-NH2
(§1) Head of the field: αvβ5 ELISA IC50 (μM)
First copying reader's note: Underlining in the printed sequences marks the cyclic part; the footnote for the raised a at 'Peptide' is not printed on the sheet, and the D in D-Pen is printed as a small capital.
(§2) Where the first naming reader finds the target: head: αvβ5 ELISA IC50 (μM)

platelets [2] = assay: Ex vivo inhibition of platelet aggregation (Table IV); format: in vivo, dog; conditions: dose as listed per peptide (bolus ± infusion)
Method: (§3) Platelet aggregation assays were performed following the methods of this Example or those of Example IX.G. Platelet aggregation was assessed using the method of Born, (Nature 194:927-929 (1962)), incorporated herein by reference. Briefly, the change in light transmission was measured through a stirred suspension of platelets in an aggregometer (Model 400 VS, Chrono-Log, Havertown, Pa., USA). Studies employing ADP were performed with platelet-rich plasma (PRP), which was obtained by low-speed centrifugation (200×g for 10 min.) of whole blood freshly drawn into trisodium citrate (at a final concentration of 11 mM). In studies using thrombin, the PRP was gel-filtered on Sepharose 2B in divalent ion-free Tyrode's solution containing 2% BSA. For all studies, the reference standard was platelet-poor plasma, which was obtained by centrifuging PRP at 1000×g for 5 min.
(§4) Platelet counts and ex vivo aggregation studies were performed one hour before and 1, 3, and 5 hours after application of anodal direct current.
Using the method described in Example V to measure ex vivo inhibition of platelet aggregation and the method described in Example VII to measure bleeding, four additional peptides were tested. These peptides included 11J, 11Q, 11K and 11V.

αvβ5 [3] = assay: αvβ5 ELISA IC50 (μM); remark: listed apart in the source
Description: Table printed on a drawing sheet, FIG. 17
Title: Modifications of G(Pen)[…]
as §1
The patent's description of the figure: FIG. 17 is a Table showing the effect of modifications of Pen residue at position −3 (as defined, infra) on potency and selectivity.
First copying reader's note: Underlining in the printed sequences marks the cyclized part; the footnotes a and b are referenced but not printed on the sheet.
as §2

canine platelets = assay: Canine platelet aggregation in vitro (ADP, arachidonic acid, collagen); format: cell-based, dog; conditions: all three responses (ADP, arachidonic acid, collagen); read-out: concentration inhibiting canine platelet aggregation by 50%
Method: as §4
Epinephrine (550 nM) was used to prime platelets before stimulation with arachidonic acid. Peptides were added in 1% dilutions to the PRP solutions.

αvβ5 [4] = assay: αvβ5 ELISA IC50 (μM); remark: listed apart in the source
Description: Table printed on a drawing sheet, FIG. 19
(§5) Title: Modifications of R(Pmc)GHRGD(Y-OMe)RCR
as §1
First copying reader's note: The part of each sequence from (Pmc) through C is underlined on the sheet, and the footnotes a,b cited in the head are not printed on it.
as §2

platelets [5] = molecular target: T1, platelets (Homo sapiens, UniProt P05106+P08514); assay: Platelet aggregation assay (Examples XI.G and XII); format: cell-based; conditions: comparator analogue 32
Method: as §3, with “Platelet” for “Platelet aggregation assays were performed following the methods of this Example or those of Example IX.G. Platelet”, “Nature” for “(Nature”, “(1962),” for “(1962)),”
All aggregation studies were performed at 37° C. with a constantly stirred suspension of 3×10^8 platelets/mL. (Platelet count was determined with the aid of a hemacytometer.) Peptides and stimulants were added to these suspensions in 1% dilutions. The PRP and gel-filtered platelets were used within three hours from the time of blood collection.
The peptides described in this Example were synthesized according to the methods of Examples I and XI. Selectivity and potency were measured according to the methods of Examples II through XI. The peptide identification numbers used in this Example are consistent and relevant to this Example only. Some of the peptides are identified by other nomenclature elsewhere in this document.

αvβ5 [6] = assay: αvβ5 ELISA IC50 (μM); remark: listed apart in the source
Description: Table printed on a drawing sheet, FIG. 20
as §5, §1
First copying reader's note: Footnote marks a, b and c are printed but their texts are not on the sheet; the underlined part of each sequence (Pmc to C) marks the cyclic portion, and D in (DH) and (DY) is a small capital for the D-amino acid.
as §2

platelets [7] = molecular target: T1, platelets; assay: Thrombin-stimulated platelet aggregation (gel-filtered platelets); format: cell-based; conditions: thrombin 2 U/ml
Method: All aggregation studies were performed at 37° C. with a constantly stirred suspension of 3×10^8 platelets/ml. (Platelet count was determined with the aid of a hemacytometer.) Peptides and stimulants were added to these suspensions in 1% dilutions. The PRP and gel-filtered platelets were used within three hours from the time of blood collection.
Peptide anti-aggregation potencies were determined from dose-responsive curves for the inhibition of the maximum aggregation responses stimulated by physiologic doses of ADP (10 μm) and thrombin (2 U/ml).

platelets [8] = assay: Ex vivo platelet aggregation in the canine coronary thrombosis study; parameters: species or system dog; conditions: 10 mg/kg injection
Method: For all ex vivo studies (see FIG. 3), control aggregation values were standardized to the percentages of light transmission observed in PRP and PPP samples (0% and 100%, respectively).
(§6) Animals were randomly assigned to two treatment groups: vehicle control (i.e., normal saline) or RGD peptides at various concentrations. Peptides were administered intra-atrially in both bolus and continuous injections. Each bolus injection consisted of 0.5 to 10 mg/kg and was administered 15 minutes before application of the current. A continuous infusion of the same peptide was then started immediately after completion of this initial injection. Animals received a 25 μg/kg/min to 200 μg/kg/min infusion. The anti-thrombotic effects of the peptides were monitored until 30 minutes after the occurrence of a persistent, occlusive thrombus or five hours after the initiation of electrical stimulation (whichever resulted first). If an occlusive thrombus had not developed within four hours after the initiation of current, the peptide infusion was stopped.
as §4
Platelet aggregation was also determined ex vivo at one, three, and five hours after current application. For these studies, arachidonic acid, or collagen was again used to stimulate the platelets.

coronary thrombosis = assay: Electrically induced canine coronary thrombosis (time to full occlusion); format: in vivo, dog
Method: Male mongrel dogs weighing 14 to 20 kg were selected based on proper aggregation of their platelets in response to arachidonic acid, collagen, and adenosine disphosphate (ADP) and based on similar weights and hemodynamic properties.
Before surgery, the animals were anesthetized with sodium pentobarbital (30 mg/kg, i.v.) and then intubated and ventilated on room air with positive pressure using a respirator (Harvard Apparatus, S. Natick, Mass.) at a volume of 30 ml/kg and a frequency of 12 breaths/min. Surgery, performed under aseptic conditions, was begun with the placement of cannulae into the left carotid artery and jugular vein for monitoring arterial blood pressure (Statham P23 pressure transducer, Gould, Inc., Cardiovascular Products, Oxnard, Calif.) and administering intravenous fluids.
The heart was exposed via a left thoracotomy through the 5th intercostal space. A 2-cm segment of the left circumflex coronary artery (LCCA) was isolated from surrounding tissue by blunt dissection. […] The intra-coronary electrode was constructed by attaching a 25-gauge hypodermic needle tip to a 30-gauge Teflon-insulated silver-coated copper wire. The mechanical occluder was constructed of stainless steel in a C shape with a Teflon screw (2 mm diameter) on top. It was adjusted to control vessel circumference and decrease the reactive hyperemic flow due to a 10-sec (full) occlusion by 50-70% without affecting basal coronary blood flow (FIG. 1). A monopolar epicardial electrode was sutured to the surface of the ventricle in the region of LCCA distribution to monitor ischemic changes in the electrocardiogram (ECG). The left atrium was cannulated with polythylene tubing for administration of the peptide. Continuous recordings of blood pressure, limb lead II ECG, epicardial electrogram, and mean and phasic LCCA blood flow were obtained on a Model 7 polygraph (Grass Instrument Co., Quincy, Mass.).
One hour after the completion of surgery, a 100 micro-amp continuous anodal direct current delivered from a 9 volt nickel-cadmium battery was applied to the intimal surface of the LCCA. The anode of the battery was in series with a 250,000 ohm potentiometer and the intraluminal coronary artery electrode. The electric circuit was completed by placing the cathode in a subcutaneous site. Electrical stimulation was applied for three hours. At the conclusion of each experiment, the heart was fibrillated electrically and quickly removed, and the LCCA was dissected free as far as possible to verify the position of the implanted anodal electrode.
as §6
Coronary thrombosis was quantified as the time to full occlusion. The effects of the various peptide treatments on coronary thrombosis is illustrated in FIG. 4.

T1 sequence (P08514 32-1039): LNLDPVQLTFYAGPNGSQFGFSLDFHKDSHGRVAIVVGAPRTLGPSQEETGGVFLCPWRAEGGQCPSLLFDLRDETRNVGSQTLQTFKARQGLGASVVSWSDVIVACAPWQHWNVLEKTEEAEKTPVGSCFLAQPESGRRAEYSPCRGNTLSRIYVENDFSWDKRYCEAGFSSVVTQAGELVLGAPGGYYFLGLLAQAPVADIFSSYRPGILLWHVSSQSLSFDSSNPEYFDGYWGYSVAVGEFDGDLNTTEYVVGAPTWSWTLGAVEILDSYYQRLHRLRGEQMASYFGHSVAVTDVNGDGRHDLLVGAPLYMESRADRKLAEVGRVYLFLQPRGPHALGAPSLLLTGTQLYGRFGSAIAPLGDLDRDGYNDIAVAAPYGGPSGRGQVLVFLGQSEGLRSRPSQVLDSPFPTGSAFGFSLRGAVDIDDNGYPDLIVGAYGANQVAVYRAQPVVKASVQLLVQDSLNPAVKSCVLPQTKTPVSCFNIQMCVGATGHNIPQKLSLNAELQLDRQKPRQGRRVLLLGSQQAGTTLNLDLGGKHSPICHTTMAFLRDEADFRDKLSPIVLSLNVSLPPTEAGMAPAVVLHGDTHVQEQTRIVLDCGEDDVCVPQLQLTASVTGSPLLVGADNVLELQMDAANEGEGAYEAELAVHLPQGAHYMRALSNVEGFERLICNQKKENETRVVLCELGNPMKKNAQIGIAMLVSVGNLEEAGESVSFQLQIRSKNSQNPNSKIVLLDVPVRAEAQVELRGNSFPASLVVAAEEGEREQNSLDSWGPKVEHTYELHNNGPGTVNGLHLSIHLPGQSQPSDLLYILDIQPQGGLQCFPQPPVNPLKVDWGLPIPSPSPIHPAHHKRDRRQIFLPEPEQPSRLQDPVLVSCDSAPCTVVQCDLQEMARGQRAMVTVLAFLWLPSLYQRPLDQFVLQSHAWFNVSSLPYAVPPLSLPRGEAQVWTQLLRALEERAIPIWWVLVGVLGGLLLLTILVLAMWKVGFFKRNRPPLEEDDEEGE
T1 sequence (P05106 27-788): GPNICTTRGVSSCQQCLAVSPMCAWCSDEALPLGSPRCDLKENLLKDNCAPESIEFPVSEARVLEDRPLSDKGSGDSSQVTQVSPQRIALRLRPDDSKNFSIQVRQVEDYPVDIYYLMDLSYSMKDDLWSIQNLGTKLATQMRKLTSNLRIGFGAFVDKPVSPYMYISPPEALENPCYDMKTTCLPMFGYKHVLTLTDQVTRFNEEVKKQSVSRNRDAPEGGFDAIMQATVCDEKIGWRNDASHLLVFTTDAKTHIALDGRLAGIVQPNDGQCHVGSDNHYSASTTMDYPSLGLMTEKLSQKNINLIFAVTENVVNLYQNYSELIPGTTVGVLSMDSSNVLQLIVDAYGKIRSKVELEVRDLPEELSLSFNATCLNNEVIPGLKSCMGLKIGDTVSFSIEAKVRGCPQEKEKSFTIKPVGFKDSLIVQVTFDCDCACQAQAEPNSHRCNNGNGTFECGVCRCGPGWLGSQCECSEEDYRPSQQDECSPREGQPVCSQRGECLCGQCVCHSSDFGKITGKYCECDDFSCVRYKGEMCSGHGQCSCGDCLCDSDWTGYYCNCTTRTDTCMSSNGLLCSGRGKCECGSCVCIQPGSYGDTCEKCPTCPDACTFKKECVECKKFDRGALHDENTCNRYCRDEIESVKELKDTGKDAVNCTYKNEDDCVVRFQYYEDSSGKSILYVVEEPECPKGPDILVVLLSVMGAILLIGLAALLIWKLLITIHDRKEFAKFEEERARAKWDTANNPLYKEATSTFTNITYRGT

For (Mpr)NPRGD(Y-OMe)RC-NH2 [compound 39], the pIC50 (αvβ5 [1]) was 5.52.

Ac-CNPKGD(Y-OMe)RC-NH2 [11Q] was tested, and the “ex vivo inhibition platelet aggregation” value (platelets [2]) was >95%.

G(D-Pen)GHRGDLRCA [compound 2] gave a pIC50 (αvβ5 [3]) of 5.28.

Substance GRGDSP [reference compound] has a pIC50 (canine platelets) of ~3.89.

R(Pmc)RHRGD(Y-OMe)RCR [compound 22] showed a pIC50 (αvβ5 [4]) of 5.21.

“Ac-(D-Pen)NPRGD(Y-OMe)RC-NH2 [compound 36]” was tested, and the pIC50 (αvβ5 [1]) was 5.17.

Ac-CNPRGD(Y-OMe)EC-NH2 [11J] was tested, and the “ex vivo inhibition platelet aggregation” value (platelets [2]) was >98% and the “fold decrease in potency versus analogue 32” value (platelets [5]) was 15 fold.

With G(Pen)GHRGDLRCA [2G] the pIC50 (αvβ5 [3]) was 5.08.

R(D-Pen)GHRGDLRCR [analogue 4] gave a pIC50 (αvβ5 [3]) of 5.00.

For R(Pmc)G(DY)RGD(Y-OMe)RCR [compound 25], the pIC50 (αvβ5 [6]) was 5.00.

With Ac-CNPRGD(Y-OMe)AC-NH2 [11K] the “ex vivo inhibition platelet aggregation” value (platelets [2]) was >98% and the “platelet aggregation potency compared with analogue 32” value (platelets [5]) was “substantial decreases”.

With (Pmp)NPRGD(Y-OMe)RC-NH2 [compound 38] the pIC50 (αvβ5 [1]) was 5.31.

Work on R(Pmc)DHRGD(Y-OMe)RCR [compound 18] yielded a pIC50 (αvβ5 [4]) of 5.14.

With “Ac-(Pmc)NPRGD(Y-OMe)RC-NH2 [compound 37]” the pIC50 (αvβ5 [1]) was 5.63.

R(Pmc)IHRGD(Y-OMe)RCR [compound 20] gave a pIC50 (αvβ5 [4]) of 5.00.

R(Pmc)GPRGD(Y-OMe)RCR [compound 26] was tested, and the pIC50 (αvβ5 [6]) was 5.77.

R(Pmc)SHRGD(Y-OMe)RCR [compound 19] showed a pIC50 (αvβ5 [4]) of 5.18.

Work on R(Pmc)GYRGD(Y-OMe)RCR [compound 24] yielded a pIC50 (αvβ5 [6]) of 5.06.

For R(Pen)GRGDWPCR [4R], the pIC50 (platelets [7]) was 6.28, the “ex vivo platelet aggregation by ADP, AA and collagen” value (platelets [8]) was “unresponsive to all modes of stimulation at all time points” and the “coronary thrombosis: time to full occlusion” value (coronary thrombosis; 3 mg/kg) was “ineffective”. The “coronary thrombosis: time to full occlusion” value (coronary thrombosis; 10 mg/kg) was “prevented occlusion throughout the duration of the study”.

For R(Tmc)GHRGDLRCR [analogue 7], the pIC50 (αvβ5 [3]) was 6.47.

For R(Pmc)GHRGDLRCR [analogue 5], the pIC50 (αvβ5 [3]) was 5.80.

In the case of Ac-CNPRGD(Y-OMe)(Nle)C-NH2 [11V], the “ex vivo inhibition platelet aggregation” value (platelets [2]) was >98%.
